Measured values taken from patent US8309577B2, “Quinuclidine compounds as α-7 nicotinic acetylcholine receptor ligands” (Bristol-Myers Squibb Company, priority 2008, dated 2012).

target: T1, α-7 nicotinic acetylcholine receptor channel expressed in HEK 293 cells (Rattus norvegicus, UniProt Q05941); assay: Ca2+-sensitive fluorescence-based FLIPR assay, α7 nicotinic ACh receptor channel function (agonist); format: cell-based; settings: not given
T1 construct: expressed in transfected cells
Outline: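 Potency and efficacy derived from kinetic FLIPR Ca²⁺-flux fluorescence, recorded 3 min after compound addition in Hanks buffer following a 10 s baseline.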

T1 sequence (Q05941 23-502): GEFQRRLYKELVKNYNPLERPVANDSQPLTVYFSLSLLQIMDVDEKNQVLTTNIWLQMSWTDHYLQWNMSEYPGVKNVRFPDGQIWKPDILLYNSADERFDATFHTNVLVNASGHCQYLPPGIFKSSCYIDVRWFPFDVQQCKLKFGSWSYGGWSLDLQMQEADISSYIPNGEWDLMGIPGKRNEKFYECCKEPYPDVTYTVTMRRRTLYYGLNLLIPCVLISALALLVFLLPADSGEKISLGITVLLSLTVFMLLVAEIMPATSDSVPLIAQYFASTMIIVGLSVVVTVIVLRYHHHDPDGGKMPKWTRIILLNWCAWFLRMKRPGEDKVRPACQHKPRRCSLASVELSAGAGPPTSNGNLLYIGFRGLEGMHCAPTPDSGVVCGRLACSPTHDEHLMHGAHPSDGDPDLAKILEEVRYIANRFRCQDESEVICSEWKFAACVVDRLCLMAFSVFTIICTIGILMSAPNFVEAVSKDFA

Compound	EC50 [nM]
Cc1nc2cc(NC3=NCC4(CN5CCC4CC5)O3)ccc2s1 (stereo not drawn) [Example 63]	2600
c1cc2nc(NC3=NCC4(CN5CCC4CC5)O3)sc2cc1N1CCOCC1 (stereo not drawn) [Example 46]	2000
FC(F)(F)Oc1ccc2nc(NC3=NCC4(CN5CCC4CC5)O3)sc2c1 (stereo not drawn) [Example 49]	3330

same assay, conditions: FLIPR α7 (EC50, nM), Table 1; HEK 293 cells, agonist Ca2+ flux

Compound	EC50 [nM]
FC(F)(F)c1ccc2nc(NC3=NCC4(CN5CCC4CC5)O3)nn2c1 (stereo not drawn) [Example 83]	240
Brc1cnc(NC2=NC[C@@]3(CN4CCC3CC4)O2)nc1C1CC1 [Example 210]	9
c1csc(NC2=NCC3(CN4CCC3CC4)O2)n1 (single isomer, unassigned) [Example 16a]	3170
Cc1cc(Cl)cc2sc(NC3=NC[C@@]4(CN5CCC4CC5)O3)nc12 [Example 174]	245
FC(F)(F)c1cnc(NC2=NC[C@@]3(CN4CCC3CC4)O2)cn1 [Example 25, (R)—N-(5-(Trifluoromethyl)pyrazin-2-yl)-4H-1′-azaspiro[oxazole-5,3′-bicyclo[2.2.2]octan]-2-amine]	510
c1ccc2[nH]c(NC3=NCC4(CN5CCC4CC5)O3)nc2c1 (single isomer, unassigned) [Example 8a, N-(1H-benzo[d]imidazol-2-yl)-4H-1′-azaspiro[oxazole-5,3′-bicyclo[2.2.2]octan]-2-amine]	120

same assay, conditions: FLIPR α7 activity rating (EC50, nM), Table 1; HEK 293 cells, agonist Ca2+ flux

Compound	EC50 [nM]
CC(C)c1csc(NC2=NCC3(CN4CCC3CC4)O2)n1 (racemic) [Example 15, N-(4-Isopropylthiazol-2-yl)-4H-1′-azaspiro[oxazole-5,3′-bicyclo[2.2.2]octan]-2-amine]	100 to 1000
c1cc2cn[nH]c2cc1NC1=NCC2(CN3CCC2CC3)O1 (stereo not drawn) [Example 78]	1000 to 100000
Clc1ccc(NC2=NC[C@@]3(CN4CCC3CC4)O2)nc1 [Example 214]	< 100
Cc1ccc2nc(NC3=NCC4(CN5CCC4CC5)O3)sc2c1 (stereo not drawn) [Example 12, N-(6-Methylbenzo[d]thiazol-2-yl)-4H-1′-azaspiro[oxazole-5,3′-bicyclo[2.2.2]octan]-2-amine]	100 to 1000
c1cnc2sc(NC3=NC[C@@]4(CN5CCC4CC5)O3)nc2c1 [Example 271, (R)—N-(Thiazolo[5,4-h]pyridin-2-yl)-4H-1′-azaspiro[oxazole-5,3′-bicyclo[2.2.2]octan]-2-amine]	< 100
FC(F)(F)c1ccc2nc(NC3=NCC4(CN5CCC4CC5)O3)nn2c1 (stereo not drawn) [Example 83]	100 to 1000
COc1ccc2c(NC3=NC[C@@]4(CN5CCC4CC5)O3)n[nH]c2c1 [Example 135]	< 100
COc1ccc2nc(NC3=NC[C@@]4(CN5CCC4CC5)O3)nn2c1 [Example 24, (R)—N-(6-Methoxy-[1,2,4]-triazolo[1,5-a]pyridin-2-yl)-4H-1′-azaspiro[oxazole-5,3′-bicyclo[2.2.2]octan]-2-amine]	< 100
c1cncc(-c2cnc(NC3=NC[C@@]4(CN5CCC4CC5)O3)cn2)c1 [Example 36, (R)—N-(5-(Pyridin-3-yl)pyrazin-2-yl)-4H-1′-azaspiro[oxazole-5,3′-bicyclo[2.2.2]octan]-2-amine]	100 to 1000
FC(F)Oc1cnc(NC2=NC[C@@]3(CN4CCC3CC4)O2)nc1 [Example 39, (R)—N-(5-(Difluoromethoxy)pyrimidin-2-yl)-4H-1′-azaspiro[oxazole-5,3′-bicyclo[2.2.2]octan]-2-amine]	< 100
CC(=O)Nc1ccc2nc(NC3=NC[C@@]4(CN5CCC4CC5)O3)sc2c1 [Example 21, (R)—N-(2-(4H-1′-Azaspiro[oxazole-5,3′-bicyclo[2.2.2]octane]-2-ylamino)benzo[d]thiazol-6-yl)acetamide]	< 100
Cc1nc2cc(NC3=NCC4(CN5CCC4CC5)O3)ccc2s1 (stereo not drawn) [Example 63]	1000 to 100000
Brc1cnc(NC2=NC[C@@]3(CN4CCC3CC4)O2)nc1C1CC1 [Example 210]	< 100
Cc1cnc(NC2=NCC3(CN4CCC3CC4)O2)s1 (stereo not drawn) [Example 92]	< 100
Clc1cc(Cl)nc(NC2=NC[C@@]3(CN4CCC3CC4)O2)c1 [Example 286, (R)—N-(4,6-Dichloropyridin-2-yl)-4H-1′-azaspiro[oxazole-5,3′-bicyclo[2.2.2]octan]-2-amine]	100 to 1000
c1csc(NC2=NCC3(CN4CCC3CC4)O2)n1 (single isomer, unassigned) [Example 16b]	100 to 1000
CC(C)c1csc(NC2=NCC3(CN4CCC3CC4)O2)n1 (single isomer, unassigned) [Example 15b]	100 to 1000
Cc1cnc(NC2=NC[C@@]3(CN4CCC3CC4)O2)c(C)n1 [Example 186]	100 to 1000
Clc1ccc(NC2=NC[C@@]3(CN4CCC3CC4)O2)nn1 [Example 254, (R)—N-(6-Chloropyridazin-3-yl)-4H-1′-azaspiro[oxazole-5,3′-bicyclo[2.2.2]octan]-2-amine]	100 to 1000
Cc1oc2ncnc(NC3=NC[C@@]4(CN5CCC4CC5)O3)c2c1C [Example 161]	1000 to 100000
Cc1cc(C)c2c(NC3=NCC4(CN5CCC4CC5)O3)nsc2n1 (racemic) [Example 114]	100 to 1000

Compound	EC50 [nM]
COc1cc(C)nc(NC2=NC[C@@]3(CN4CCC3CC4)O2)n1 [Example 172]	100 to 1000
Brc1cnc(NC2=NC[C@@]3(CN4CCC3CC4)O2)cn1 [Example 136]	< 100
c1csc(NC2=NCC3(CN4CCC3CC4)O2)n1 (single isomer, unassigned) [Example 16a]	1000 to 100000
Cc1noc(C)c1NC1=NCC2(CN3CCC2CC3)O1 (stereo not drawn) [Example 67]	1000 to 100000
Cc1nc(NC2=NC[C@@]3(CN4CCC3CC4)O2)sc1-c1ccccc1 [Example 189]	100 to 1000
COc1ccc(-c2nc(NC3=NC[C@@]4(CN5CCC4CC5)O3)sc2C)cc1 [Example 129]	100 to 1000
COc1ccc(-c2cc(NC3=NC[C@@]4(CN5CCC4CC5)O3)ncn2)cn1 [Example 43, (R)—N-(6-(6-Methoxypyridin-3-yl)pyrimidin-4-yl)-4H-1′-azaspiro[oxazole-5,3′-bicyclo[2.2.2]octan]-2-amine]	< 100
COc1ncnc2sc(NC3=NC[C@@]4(CN5CCC4CC5)O3)nc12 [Example 274, (R)—N-(7-Methoxythiazolo[5,4-d]pyrimidin-2-yl)-4H-1′-azaspiro[oxazole-5,3′-bicyclo[2.2.2]octan]-2-amine]	1000 to 100000
c1cc2nc(NC3=NCC4(CN5CCC4CC5)O3)sc2cc1N1CCOCC1 (stereo not drawn) [Example 46]	1000 to 100000
CCc1nnc(NC2=NC[C@@]3(CN4CCC3CC4)O2)o1 [Example 266, (R)—N-(5-Ethyl-1,3,4-oxadiazol-2-yl)-4H-1′-azaspiro[oxazole-5,3′-bicyclo[2.2.2]octan]-2-amine]	1000 to 100000
Cc1cc(Cl)cc2sc(NC3=NC[C@@]4(CN5CCC4CC5)O3)nc12 [Example 174]	100 to 1000
FC(F)(F)c1cnc(NC2=NC[C@@]3(CN4CCC3CC4)O2)cn1 [Example 25, (R)—N-(5-(Trifluoromethyl)pyrazin-2-yl)-4H-1′-azaspiro[oxazole-5,3′-bicyclo[2.2.2]octan]-2-amine]	100 to 1000
C1CCc2sc(NC3=NCC4(CN5CCC4CC5)O3)nc2C1 (racemic) [Example 14, N-(4,5,6,7-Tetrahydrobenzo[d]thiazol-2-yl)-4H-1′-azaspiro[oxazole-5,3′-bicyclo[2.2.2]octan]-2-amine]	100 to 1000
Cc1ccc2nc(NC3=NC[C@@]4(CN5CCC4CC5)O3)ccc2c1 [Example 157]	100 to 1000
c1cncc(-c2cc(NC3=NC[C@@]4(CN5CCC4CC5)O3)ncn2)c1 [Example 244, (R)—N-(6-(Pyridin-3-yl)pyrimidin-4-yl)-4H-1′-azaspiro[oxazole-5,3′-bicyclo[2.2.2]octan]-2-amine]	< 100
c1ccc2[nH]c(NC3=NCC4(CN5CCC4CC5)O3)nc2c1 (single isomer, unassigned) [Example 8a, N-(1H-benzo[d]imidazol-2-yl)-4H-1′-azaspiro[oxazole-5,3′-bicyclo[2.2.2]octan]-2-amine]	100 to 1000
Clc1cnc(NC2=NC[C@@]3(CN4CCC3CC4)O2)cc1Cl [Example 252, (R)—N-(4,5-Dichloropyridin-2-yl)-4H-1′-azaspiro[oxazole-5,3′-bicyclo[2.2.2]octan]-2-amine]	< 100
FC(F)(F)Oc1ccc2nc(NC3=NCC4(CN5CCC4CC5)O3)sc2c1 (stereo not drawn) [Example 49]	1000 to 100000
CN1CCCC1c1ccc(NC2=NC[C@@]3(CN4CCC3CC4)O2)nc1 (stereo partly drawn) [Example 217]	1000 to 100000
Cc1ccc2cnc(NC3=NC[C@@]4(CN5CCC4CC5)O3)cc2c1 [Example 291, (R)—N-(6-Methylisoquinolin-3-yl)-4H-1′-azaspiro[oxazole-5,3′-bicyclo[2.2.2]octan]-2-amine]	< 100
CCc1ccc2nc(NC3=NCC4(CN5CCC4CC5)O3)sc2c1 (stereo not drawn) [Example 91]	100 to 1000

same assay, conditions: FLIPR α7 activity rating (EC50, nM), Table Ib; HEK 293 cells, agonist Ca2+ flux

Compound	EC50 [nM]
c1cn(-c2cc(NC3=NC[C@@]4(CN5CCC4CC5)O3)ncn2)cn1 [Example 347, (R)—N-(6-(1H-imidazol-1-yl)pyrimidin-4-yl)-4H-1′-azaspiro[oxazole-5,3′-bicyclo[2.2.2]octan]-2-amine]	< 100
Fc1ccc(-c2ccnc(NC3=NC[C@@]4(CN5CCC4CC5)O3)c2)cc1Cl [Example 300, (R)—N-(4-(3-Chloro-4-fluoro-phenyl)pyridin-2-yl)-4H-1′-azaspiro[oxazole-5,3′-bicyclo[2.2.2]octan]-2-amine]	< 100
Cc1nc(NC2=NC[C@@]3(CN4CCC3CC4)O2)ccc1Cl [Example 306, (R)—N-(5-Chloro-6-methylpyridin-2-yl)-4H-1′-azaspiro[oxazole-5,3′-bicyclo[2.2.2]octan]-2-amine]	< 100
Cc1cccc(-c2ccnc(NC3=NC[C@@]4(CN5CCC4CC5)O3)c2)c1 [Example 301, (R)—N-(4-m-Tolylpyridin-2-yl)-4H-1′-azaspiro[oxazole-5,3′-bicyclo[2.2.2]octan]-2-amine]	< 100
Cc1cnc(NC2=NC[C@@]3(CN4CCC3CC4)O2)cc1C [Example 309, (R)—N-(4,5-Dimethylpyridin-2-yl)-4H-1′-azaspiro[oxazole-5,3′-bicyclo[2.2.2]octan]-2-amine]	< 100
COc1cc2cnc(NC3=NC[C@@]4(CN5CCC4CC5)O3)cc2cc1Cl [Example 344, (R)—N-(6-Chloro-7-methoxyisoquinolin-3-yl)-4H-1′-azaspiro[oxazole-5,3′-bicyclo[2.2.2]octan]-2-amine]	< 100
Cc1cnc2nc(NC3=NC[C@@]4(CN5CCC4CC5)O3)sc2n1 [Example 341, (R)—N-(6-methylthiazolo[5,4-b]pyrazin-2-yl)-4H-1′-azaspiro[oxazole-5,3′-bicyclo[2.2.2]octan]-2-amine]	< 100
Cn1cc(-c2ccnc(NC3=NC[C@@]4(CN5CCC4CC5)O3)c2)cn1 [Example 303, (R)—N-(4-(1-Methyl-1H-pyrazol-4-yl)pyridin-2-yl)-4H-1′-azaspiro[oxazole-5,3′-bicyclo[2.2.2]octan]-2-amine]	< 100
Cc1cc(NC2=NC[C@@]3(CN4CCC3CC4)O2)ncc1F [Example 307, (R)—N-(5-Fluoro-4-methylpyridin-2-yl)-4H-1′-azaspiro[oxazole-5,3′-bicyclo[2.2.2]octan]-2-amine]	< 100
